According to patent publication US6979686B1, “Substituted pyrazoles as p38 kinase inhibitors” (Pharmacia Corporation, priority 2001, dated 2005):
Like-named read-outs stand apart in the source and are kept apart here. Each block holds one compound with its values, some of them ahead of it.

Legend:
human p38 kinase alpha = biological target: T1, human p38 kinase alpha (Homo sapiens, UniProt Q16539); assay: p38 kinase in vitro assay, phosphorylation of biotinylated PHAS-I with 32P-ATP; format: biochemical; settings: for IC50: read-out: P38 alpha kinase IC50
T1 construct: GST (N, cleaved yes); made in house; host or cells: E. coli DH10B
T1 sequence (Q16539 whole entry): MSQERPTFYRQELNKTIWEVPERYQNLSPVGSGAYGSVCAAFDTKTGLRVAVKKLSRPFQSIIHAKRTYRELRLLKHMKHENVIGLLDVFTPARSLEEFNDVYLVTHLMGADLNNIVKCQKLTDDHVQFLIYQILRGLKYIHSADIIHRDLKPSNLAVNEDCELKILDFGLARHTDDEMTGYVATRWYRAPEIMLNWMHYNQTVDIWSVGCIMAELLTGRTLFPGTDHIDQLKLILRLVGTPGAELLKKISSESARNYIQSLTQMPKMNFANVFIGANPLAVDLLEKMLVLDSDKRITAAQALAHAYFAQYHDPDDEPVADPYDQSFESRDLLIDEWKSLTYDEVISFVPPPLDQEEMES

[1] = test system: TNF-α, U937 human histiocytic lymphoma cell line; assay: LPS stimulation of TNF production by U937 cells; format: cell-based; settings: for IC50: read-out: U937 Cell IC50; for U937 Cell % inhib @ conc. (uM): @ 1.0 uM; for inhibition at 1 µM: U-937, @ 1.0 uM; for U937 Cell IC50, uM or % inhib @ conc. (uM): % inhib / U937 Cell % inhib @ conc.: @ 10.0 uM
Procedure, shortened: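 U937 cells differentiated 24 h with 20 ng/ml PMA, rested 24-48 h, used at 2 million cells/ml. Compounds in 0.1% DMSO final; LPS (E. coli, 100 ng/ml final) stimulation for 4 h at 37° C. Released TNF-α measured by ELISA; IC50 (μM).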

[2] = Homo sapiens, U-937, TNF production, human U937 cells stimulated with LPS
[3] = in vitro P38-alpha kinase inhibition
[4] = TNF production, U937 cells stimulated with LPS
[5] = TNF production, human U937 cells stimulated with LPS
[6] = Homo sapiens, TNF production, U937 cells stimulated with LPS, read-out: U937 Cell % inhib @ conc.
[7] = TNF production, LPS-stimulated U937 cells

SMILES: O=C(NCc1[nH]nc(-c2ccc(F)cc2)c1-c1ccncc1)c1ccc(F)c(F)c1F [Example B-0026]
inhibition at 1 µM (human p38 kinase alpha; @ 1.0 uM, read-out: P38 alpha kinase % inhib @ conc.): 96%
IC50 [1, 2]: 3270 nM

SMILES: O=C(NC(Cc1ccccc1)c1[nH]nc(-c2ccc(F)cc2)c1-c1ccncc1)c1ccc(F)cc1 (stereo not drawn) [Example B-0800]
IC50 (human p38 kinase alpha; [3]): 1010 nM
IC50 [1, 2]: > 1000 nM

SMILES: COc1cc(NC(=O)CCNC(=O)Cn2nc(-c3ccc(F)cc3)c(-c3ccncc3)c2C)cc2ccccc12 [Example B-2298]
IC50 (human p38 kinase alpha; in vitro P38-alpha kinase): 290 nM
IC50 [1, 5]: 4220 nM

SMILES: O=S(=O)(c1ccc(F)c(F)c1)N1CCC(c2[nH]nc(-c3ccc(F)cc3)c2-c2ccncc2)CC1 [Example B-1456]
IC50 (human p38 kinase alpha; in vitro P38-alpha kinase): 1290 nM
IC50 [1, 2]: > 1000 nM

SMILES: Cc1c(-c2ccncc2)c(-c2ccc(F)cc2)nn1CC(=O)N(C)CCN(C)C [Example B-2375]
P38 alpha kinase % inhib @ conc. (human p38 kinase alpha; @ 100.0 uM): 62.0% @
IC50 [1, 5]: > 10000 nM

SMILES: Cc1c(-c2ccncc2)c(-c2ccc(F)cc2)nn1CC(=O)Nc1ccccc1Sc1ccc([N+](=O)[O-])cn1 [Example B-2457]
P38 alpha kinase IC50, uM or % inhib @ conc. (uM): % inhib (human p38 kinase alpha; @ 10.0 uM): 90.0% @
U937 Cell IC50, uM or % inhib @ conc. (uM): % inhib [1, 4]: 18.0% @

SMILES: CCOC(=O)COc1cccc(NC(=O)Cn2nc(-c3ccc(F)cc3)c(-c3ccncc3)c2C)c1 [Example B-2458]
P38 alpha kinase IC50, uM or % inhib @ conc. (uM): % inhib (human p38 kinase alpha; @ 10.0 uM): 83.0% @
U937 Cell IC50, uM or % inhib @ conc. (uM): % inhib [1, 4]: 36.0% @

SMILES: CCN(Cc1ccncc1)C(=O)Cn1nc(-c2ccc(F)cc2)c(-c2ccncc2)c1C [Example B-2381]
P38 alpha kinase % inhib @ conc. (human p38 kinase alpha; @ 100.0 uM): 68% @
U937 Cell % inhib @ conc. [1, 7]: 2.0% @

SMILES: Cc1cccc(S(=O)(=O)N2CCC(c3[nH]nc(-c4ccc(F)cc4)c3-c3ccncc3)CC2)c1 [Example B-1467]
IC50 (human p38 kinase alpha; in vitro P38-alpha kinase): 1220 nM
inhibition at 1 µM ([1]; Homo sapiens, TNF production, LPS-stimulated U937 cells, read-out: U937 Cell % inhib @ conc.): 1%

SMILES: O=C(Nc1ccccc1F)N1CCC(c2[nH]nc(-c3ccc(F)cc3)c2-c2ccncc2)CC1 [Example B-1379]
IC50 (human p38 kinase alpha; in vitro P38-alpha kinase): < 100 nM
IC50 [1, 2]: 92 nM

SMILES: CCOC(=O)C(Cc1ccccc1)NC(=O)Cn1nc(-c2ccc(F)cc2)c(-c2ccncc2)c1C (stereo not drawn) [Example B-2351]
P38 alpha kinase % inhib @ conc. (human p38 kinase alpha; @ 10.0 uM): 77.0% @
U937 Cell % inhib @ conc. [1, 7]: 1.0% @

The next lines start with results.

IC50 (human p38 kinase alpha; in vitro P38-alpha kinase): 720 nM
SMILES: CCCNC(=O)Cn1nc(-c2ccc(F)cc2)c(-c2ccncc2)c1C [Example B-2270]
inhibition at 10 µM ([1]; Homo sapiens, U-937, @ 10.0 uM, TNF production, LPS-stimulated U937 cells, read-out: U937 Cell % inhib @ conc.): 31%

IC50 (human p38 kinase alpha; [3]): 440 nM
SMILES: CC(NC(=O)c1cccs1)c1[nH]nc(-c2ccc(F)cc2)c1-c1ccncc1 (stereo not drawn) [Example B-0705]
U937 Cell % inhib @ conc. (uM) ([1]; TNF production in human U937 cells stimulated with LPS): 21.0% @

P38 alpha kinase % inhib @ conc. (uM) (human p38 kinase alpha; @ 1.0 uM): 78.0% @
SMILES: C[C@@H](NC(=O)NCCc1[nH]nc(-c2ccc(F)cc2)c1-c1ccncc1)c1ccccc1 [Example B-1045]
U937 Cell % inhib @ conc. (uM) [1, 4]: 25.0% @

IC50 (human p38 kinase alpha; [3]): 610 nM
IC50 [1, 2]: > 1000 nM
SMILES: COc1ccccc1C(=O)NC(Cc1ccccc1)c1[nH]nc(-c2ccc(F)cc2)c1-c1ccncc1 (stereo not drawn) [Example B-0843]

IC50 (human p38 kinase alpha; [3]): 440 nM
IC50 ([1]; Homo sapiens, U-937, TNF production in human U937 cells stimulated with LPS): 870 nM
SMILES: CC(=O)OC(C)(C)C(=O)NC(C)c1[nH]nc(-c2ccc(F)cc2)c1-c1ccncc1 (stereo not drawn) [Example B-0535]

IC50 (human p38 kinase alpha; [3]): < 100 nM
SMILES: COc1ccc(OC)c(S(=O)(=O)NCCc2[nH]nc(-c3ccc(F)cc3)c2-c2ccncc2)c1 [Example B-1085]
inhibition at 1 µM [1, 6]: 29%

IC50 (human p38 kinase alpha; [3]): 1900 nM
IC50 [1, 2]: > 1000 nM
SMILES: CNC(=O)CCC(NC(=O)c1ccccc1OC)c1[nH]nc(-c2ccc(F)cc2)c1-c1ccncc1 (stereo not drawn) [Example B-0871]

P38 alpha kinase % inhib @ conc. (uM) (human p38 kinase alpha; @ 1.0 uM): 76.0% @
SMILES: COC(=O)c1ccccc1NC(=O)NCCc1[nH]nc(-c2ccc(F)cc2)c1-c1ccncc1 [Example B-0946]
U937 Cell % inhib @ conc. (uM) [1, 4]: 31.0% @

IC50 (human p38 kinase alpha; [3]): 3130 nM
IC50 [1, 2]: > 1000 nM
SMILES: CNC(=O)CCC(NC(=O)COC)c1[nH]nc(-c2ccc(F)cc2)c1-c1ccncc1 (stereo not drawn) [Example B-0870]

IC50 (human p38 kinase alpha; [3]): 710 nM
IC50 [1, 2]: > 1000 nM
SMILES: O=C(NC(Cc1ccccc1)c1[nH]nc(-c2ccc(F)cc2)c1-c1ccncc1)C1CC1 (stereo not drawn) [Example B-0805]

IC50 (human p38 kinase alpha; [3]): 2790 nM
SMILES: COc1ccccc1C(=O)NC(Cc1ccccc1)c1[nH]nc(-c2ccc(F)cc2)c1-c1ccncc1 (stereo not drawn) [Example B-0811]
inhibition at 1 µM [1, 6]: 2%

IC50 (human p38 kinase alpha; [3]): 1500 nM
IC50 [1, 2]: > 1000 nM
SMILES: O=C(NCCc1[nH]nc(-c2ccc(F)cc2)c1-c1ccncc1)c1cc(Cl)cc(Cl)c1 [Example B-1126]

P38 alpha kinase % inhib @ conc. (human p38 kinase alpha; @ 10.0 uM): 54.0% @
SMILES: CCN(CC)C(=O)Cn1nc(-c2ccc(F)cc2)c(-c2ccncc2)c1C [Example B-2371]
U937 Cell % inhib @ conc. [1, 7]: 36.0% @
